Usually melting point stands for the temperature of the solid-liquid transition.

From patent publication US6784137B2, “6-aryl-4-aminopicolinates and their use as herbicides” (Dow AgroSciences LLC, priority 2001, dated 2004) come the findings set out here.

Compound `Nc1cc(-c2c(F)cccc2F)nc(C(=O)O)c1Cl` [Compound 169, 4-Amino-3-chloro-6-(2,6-difluorophenyl)pyridine-2-carboxylic acid] registered a melting point of 165 to 166 °C.

As for `Nc1cc(-c2ccc(OC(F)(F)F)cc2)nc(C(=O)O)c1Cl` [Compound 174, 4-Amino-3-chloro-6-[4-(trifluoromethoxy)phenyl]pyridine-2-carboxylic acid], the melting point was in the range of 164 to 165 °C.

Regarding `Nc1cc(-c2cc(Cl)ccc2Cl)nc(C(=O)O)c1Cl` [Compound 177, 4-Amino-3-chloro-6-(2,5-dichlorophenyl)pyridine-2-carboxylic acid], the melting point lay within 213 to 215 °C.

`Nc1cc(-c2ccc(Cl)cc2C(F)(F)F)nc(C(=O)O)c1Cl` [Compound 182, 4-Amino-3-chloro-6-(4-chloro-2-(trifluoromethyl)phenyl)pyridine-2-carboxylic acid] came in with a melting point of 178 to 180 °C.

Compound `COc1ccc(-c2cc(N)c(Cl)c(C(=O)O)n2)cc1OC` [Compound 185, 4-Amino-3-chloro-6-(3,4-dimethoxyphenyl)pyridine-2-carboxylic acid] had a melting point of 182 to 183 °C.

With `COc1cc(Cl)ccc1-c1cc(N)c(Cl)c(C(=O)O)n1` [Compound 186, 4-Amino-3-chloro-6-(4-chloro-2-methoxyphenyl)pyridine-2-carboxylic acid], the melting point is 182 to 183 °C.

With `Nc1cc(-c2ccc3c(c2Cl)OCO3)nc(C(=O)O)c1Cl` [Compound 187, 4-Amino-3-chloro-6-(2-chloro-3,4-methylenedioxyphenyl)pyridine-2-carboxylic acid], the melting point was 226 to 227 °C.

`Nc1cc(-c2ccc3c(c2)CCC3)nc(C(=O)O)c1Cl` [Compound 188, 4-Amino-3-chloro-6-(5-indanyl)pyridine-2-carboxylic acid] had a melting point of 204 to 205 °C.

Take `Cc1ccc(-c2cc(N)c(Cl)c(C(=O)O)n2)c(Cl)c1` [Compound 190, 4-Amino-3-chloro-6-(2-chloro-4-methylphenyl)pyridine-2-carboxylic acid]: the melting point fell in the range of 71 to 72 °C.

For `Cc1cc(F)c(-c2cc(N)c(Cl)c(C(=O)O)n2)cc1Cl` [Compound 192, 4-Amino-3-chloro-6-(5-chloro-2-fluoro-4-methylphenyl)pyridine-2-carboxylic acid], the melting point was in the range of 173 to 175 °C.

For `COc1ccc(-c2cc(N)c(Cl)c(C(=O)O)n2)cc1C` [Compound 193, 4-Amino-3-chloro-6-(4-methoxy-3-methylphenyl)pyridine-2-carboxylic acid], the melting point came to 131 °C.

Take `COc1ccc(OC)c(-c2cc(N)c(Cl)c(C(=O)O)n2)c1` [Compound 194, 4-Amino-3-chloro-6-(2,5-dimethoxyphenyl)pyridine-2-carboxylic acid]: the melting point was in the range of 185 to 186 °C.

Compound `COCc1cc(-c2cc(N)c(Cl)c(C(=O)O)n2)ccc1Cl` [Compound 195, 4-Amino-3-chloro-6-(4-chloro-3-methoxymethylphenyl)pyridine-2-carboxylic acid] returned a melting point of 162 °C.

The compound `Nc1cc(-c2ccc3c(c2)CCO3)nc(C(=O)O)c1Cl` [Compound 201, 4-Amino-3-chloro-6-(2,3-dihydro-5-benzofuranyl)pyridine-2-carboxylic acid] gave a melting point of 218 to 220 °C.

The compound `Nc1c(Cl)c(C(=O)O)nc(-c2cccs2)c1Cl` [Compound 208, 4-Amino-3,5-dichloro-6-(2-thienyl)pyridine-2-carboxylic acid] registered a melting point of 144 °C.

As to `Nc1cc(-c2ccncc2)nc(C(=O)O)c1Cl` [Compound 209, 4-Amino-3-chloro-6-(4-pyridinyl)pyridine-2-carboxylic acid], the melting point is 155 °C (dec.).

On to `COc1ccc(-c2cc(N)c(Cl)c(C(=O)O)n2)cn1` [Compound 213, 4-Amino-3-chloro-6-(6-methoxy-3-pyridinyl)pyridine-2-carboxylic acid], for which the melting point was 110 °C (dec.).

Consider `Nc1cc(-c2ccccn2)nc(C(=O)O)c1Cl` [Compound 214, 4-Amino-3-chloro-6-(2-pyridinyl)pyridine-2-carboxylic acid], for which the melting point is 185 °C (dec.).

Compound `Nc1cc(-c2ccsc2)nc(C(=O)O)c1Cl` [Compound 216, 4-Amino-3-chloro-6-(3-thienyl)pyridine-2-carboxylic acid] yielded a melting point of 184 °C.

`Cc1ccc(-c2cc(N)c(Cl)c(C(=O)O)n2)s1` [Compound 218, 4-Amino-3-chloro-6-(5-methyl-2-thienyl)pyridine-2-carboxylic acid] returned a melting point of 175 to 176 °C.

As to `Nc1cc(-c2cnccn2)nc(C(=O)O)c1Cl` [Compound 220, 4-Amino-3-chloro-6-(2-pyrazinyl)pyridine-2-carboxylic acid], the melting point was in the range of 172 to 173 °C.

For `Nc1c(F)c(-c2ccc(Cl)nc2)nc(C(=O)O)c1Cl` [Compound 221, 4-Amino-3-chloro-5-fluoro-6-(6-chloro-3-pyridinyl)pyridine-2-carboxylic acid], the melting point was 125 °C (dec.).

The compound `Nc1cc(-c2nccs2)nc(C(=O)O)c1Cl` [Compound 222, 4-Amino-3-chloro-6-(2-thiazolyl)pyridine-2-carboxylic acid] came in with a melting point of 184 to 185 °C.

For the compound `Cn1nccc1-c1cc(N)c(Cl)c(C(=O)O)n1` [Compound 223, 4-Amino-3-chloro-6-(1-methyl-1H-pyrazol-5-yl)pyridine-2-carboxylic acid], the melting point fell in the range of 230 to 232 °C.

For the compound `Nc1cc(-c2nc3ccccc3o2)nc(C(=O)O)c1Cl` [Compound 226, 4-Amino-3-chloro-6-(2-benzoxazolyl)pyridine-2-carboxylic acid], the melting point was 262 °C (dec.).

`Nc1cc(-c2cncnc2)nc(C(=O)O)c1Cl` [Compound 228, 4-Amino-3-chloro-6-(5-pyrimidinyl)pyridine-2-carboxylic acid] returned a melting point of 180 °C.

On to `Nc1cc(-c2nc3ccccc3s2)nc(C(=O)O)c1Cl` [Compound 230, 4-Amino-3-chloro-6-(2-benzothiazolyl)pyridine-2-carboxylic acid], for which the melting point worked out at 283 °C.

`Nc1cc(-c2cnco2)nc(C(=O)O)c1Cl` [Compound 231, 4-Amino-3-chloro-6-(5-oxazolyl)pyridine-2-carboxylic acid] displayed a melting point of 166 to 170 °C.

Take `COc1ncc(-c2cc(N)c(Cl)c(C(=O)O)n2)cn1` [Compound 239, 4-Amino-3-chloro-6-(2-methoxy-5-pyrimidinyl)pyridine-2-carboxylic acid]: the melting point was 153 °C.

Take `Nc1c(Cl)c(C(=O)O)nc(-c2cncs2)c1Cl` [Compound 241, 4-Amino-3,5-dichloro-6-(5-thiazolyl)pyridine-2-carboxylic acid]: the melting point was 175 to 177 °C.

As to `COC(=O)c1nc(-c2ccc(CO)cc2)cc(N)c1Cl` [Compound 242, Methyl 4-amino-3-chloro-6-(4-hydroxymethylphenyl)pyridine-2-carboxylate], the melting point was 138 to 139 °C.

On to `COC(=O)c1nc(-c2ccc(CF)cc2)cc(N)c1Cl` [Compound 243, methyl 4-amino-3-chloro-6-(4-fluoromethylphenyl)pyridine-2-carboxylate], for which the melting point was 95 to 97 °C.
